Measured values taken from ChEMBL document CHEMBL3046274, “Toxicity of imidacloprid to developmental stages of Rhynchophorus ferrugineus (Curculionidae: Coleoptera): Laboratory and field tests” (Crop Prot, 2006).
Calls of active or inactive are those of the source. The rule behind the calls is not given here.

Legend:
[1] = system: Rhynchophorus ferrugineus; experiment: Pesticidal activity against Rhynchophorus ferrugineus (red palm weevil) cocoon assessed as mortality at 1.5 ppm administered by dipping for 3 min measured at 24 hr post-treatment relative to control; assay type: functional
[2] = system: Rhynchophorus ferrugineus; experiment: Pesticidal activity against Rhynchophorus ferrugineus (red palm weevil) cocoon assessed as mortality at 2 ppm administered by dipping for 3 min measured at 24 hr post-treatment relative to control; assay type: functional
[3] = system: Rhynchophorus ferrugineus; experiment: Pesticidal activity against Rhynchophorus ferrugineus (red palm weevil) cocoon assessed as mortality at 20 ppm administered by dipping for 3 min measured at 24 hr post-treatment relative to control; assay type: functional
[4] = system: Rhynchophorus ferrugineus; experiment: Pesticidal activity against Rhynchophorus ferrugineus (red palm weevil) cocoon assessed as mortality at 20 ppm administered by dipping for 3 min measured at 18 hr post-treatment relative to control; assay type: functional
[5] = system: Rhynchophorus ferrugineus; experiment: Pesticidal activity against Rhynchophorus ferrugineus (red palm weevil) larvae assessed as mortality at 0.5 ppm, po at 90 hr post-treatment relative to control; assay type: functional
[6] = system: Rhynchophorus ferrugineus; experiment: Pesticidal activity against Rhynchophorus ferrugineus (red palm weevil) larvae assessed as mortality at 2 ppm, po at 72 hr post-treatment relative to control; assay type: functional
[7] = system: Rhynchophorus ferrugineus; experiment: Pesticidal activity against Rhynchophorus ferrugineus (red palm weevil) larvae assessed as mortality at 0.5 ppm, po at 48 hr post-treatment relative to control; assay type: functional
[8] = system: Rhynchophorus ferrugineus; experiment: Pesticidal activity against adult Rhynchophorus ferrugineus (red palm weevil) assessed as mortality at 1000 ppm administered topically at 36 hr post-treatment; assay type: functional
[9] = system: Rhynchophorus ferrugineus; experiment: Pesticidal activity against adult Rhynchophorus ferrugineus (red palm weevil) assessed as mortality at 300 ppm administered topically at 18 hr post-treatment; assay type: functional
[10] = system: Rhynchophorus ferrugineus; experiment: Pesticidal activity against Rhynchophorus ferrugineus (red palm weevil) cocoon assessed as mortality at 20 ppm administered by dipping for 3 min measured at 114 hr post-treatment relative to control; assay type: functional
[11] = system: Rhynchophorus ferrugineus; experiment: Pesticidal activity against Rhynchophorus ferrugineus (red palm weevil) cocoon assessed as mortality at 0.5 ppm administered by dipping for 3 min measured at 90 hr post-treatment relative to control; assay type: functional
[12] = system: Rhynchophorus ferrugineus; experiment: Contact toxicity against Rhynchophorus ferrugineus (red palm weevil) adults assessed as time required for 50% mortality at 2.5 ml/l for 5 min; assay type: functional
[13] = system: Rhynchophorus ferrugineus; experiment: Contact toxicity against Rhynchophorus ferrugineus (red palm weevil) adults assessed as time required for 50% reversible knockdown at 3.5 ml/l for 5 min; assay type: functional
[14] = system: Rhynchophorus ferrugineus; experiment: Contact toxicity against Rhynchophorus ferrugineus (red palm weevil) adults assessed as time required for 50% reversible knockdown at 2.5 ml/l for 5 min; assay type: functional
[15] = system: Rhynchophorus ferrugineus; experiment: Contact toxicity against Rhynchophorus ferrugineus (red palm weevil) adults assessed as time required for 100% mortality at 1.5 ml/l for 2 min; assay type: functional
[16] = system: Rhynchophorus ferrugineus; experiment: Contact toxicity against Rhynchophorus ferrugineus (red palm weevil) adults assessed as time required for 50% mortality at 3.5 ml/l for 2 min; assay type: functional
[17] = system: Rhynchophorus ferrugineus; experiment: Contact toxicity against Rhynchophorus ferrugineus (red palm weevil) adults assessed as time required for 50% reversible knockdown at 1.5 ml/l for 2 min; assay type: functional
[18] = system: Rhynchophorus ferrugineus; experiment: Pesticidal activity against Rhynchophorus ferrugineus (red palm weevil) cocoon assessed as mortality at 0.5 ppm administered by dipping for 3 min measured at 72 hr post-treatment relative to control; assay type: functional
[19] = system: Rhynchophorus ferrugineus; experiment: Pesticidal activity against Rhynchophorus ferrugineus (red palm weevil) cocoon assessed as mortality at 1 ppm administered by dipping for 3 min measured at 72 hr post-treatment relative to control; assay type: functional
[20] = system: Rhynchophorus ferrugineus; experiment: Pesticidal activity against adult Rhynchophorus ferrugineus (red palm weevil) infested date palm tree assessed as disorientation of collected live stage larvae at 20 ml/4l of water applied through soil-drench irrigation measured after 3 weeks relative to control; assay type: functional, organism-based
[21] = system: Rhynchophorus ferrugineus; experiment: Pesticidal activity against Rhynchophorus ferrugineus (red palm weevil) cocoon assessed as mortality at 4 ppm administered by dipping for 3 min measured at 72 hr post-treatment relative to control; assay type: functional
[22] = system: Rhynchophorus ferrugineus; experiment: Pesticidal activity against Rhynchophorus ferrugineus (red palm weevil) cocoon assessed as mortality at 1.5 ppm administered by dipping for 3 min measured at 48 hr post-treatment relative to control; assay type: functional
[23] = system: Rhynchophorus ferrugineus; experiment: Pesticidal activity against Rhynchophorus ferrugineus (red palm weevil) cocoon assessed as mortality at 4 ppm administered by dipping for 3 min measured at 48 hr post-treatment relative to control; assay type: functional
[24] = system: Rhynchophorus ferrugineus; experiment: Pesticidal activity against Rhynchophorus ferrugineus (red palm weevil) cocoon assessed as mortality at 20 ppm administered by dipping for 3 min measured at 48 hr post-treatment relative to control; assay type: functional
[25] = system: Rhynchophorus ferrugineus; experiment: Pesticidal activity against adult Rhynchophorus ferrugineus (red palm weevil) assessed as mortality at 2 ppm, po at 90 hr post-treatment relative to control; assay type: functional
[26] = system: Rhynchophorus ferrugineus; experiment: Pesticidal activity against adult Rhynchophorus ferrugineus (red palm weevil) assessed as mortality at 0.5 ppm, po at 48 hr post-treatment relative to control; assay type: functional
[27] = system: Rhynchophorus ferrugineus; experiment: Pesticidal activity against adult Rhynchophorus ferrugineus (red palm weevil) assessed as mortality at 0.5 ppm, po at 24 hr post-treatment relative to control; assay type: functional
[28] = system: Rhynchophorus ferrugineus; experiment: Pesticidal activity against adult Rhynchophorus ferrugineus (red palm weevil) assessed as mortality at 1.5 ppm, po at 24 hr post-treatment relative to control; assay type: functional
[29] = system: Rhynchophorus ferrugineus; experiment: Pesticidal activity against adult Rhynchophorus ferrugineus (red palm weevil) assessed as mortality at 1.5 ppm, po at 18 hr post-treatment relative to control; assay type: functional
[30] = system: Rhynchophorus ferrugineus; experiment: Pesticidal activity against adult Rhynchophorus ferrugineus (red palm weevil) assessed as mortality at 2 ppm, po at 18 hr post-treatment relative to control; assay type: functional
[31] = system: Rhynchophorus ferrugineus; experiment: Pesticidal activity against Rhynchophorus ferrugineus (red palm weevil) larvae assessed as mortality at 4 ppm, po at 24 hr post-treatment relative to control; assay type: functional
[32] = system: Rhynchophorus ferrugineus; experiment: Pesticidal activity against Rhynchophorus ferrugineus (red palm weevil) larvae assessed as mortality at 1.5 ppm, po at 18 hr post-treatment relative to control; assay type: functional
[33] = system: Rhynchophorus ferrugineus; experiment: Pesticidal activity against adult Rhynchophorus ferrugineus (red palm weevil) assessed as mortality at 0.5 ppm, po at 114 hr post-treatment relative to control; assay type: functional
[34] = system: Rhynchophorus ferrugineus; experiment: Pesticidal activity against adult Rhynchophorus ferrugineus (red palm weevil) assessed as mortality at 2 ppm, po at 114 hr post-treatment relative to control; assay type: functional
[35] = system: Rhynchophorus ferrugineus; experiment: Pesticidal activity against adult Rhynchophorus ferrugineus (red palm weevil) assessed as mortality at 500 ppm administered topically at 18 hr post-treatment; assay type: functional
[36] = system: Rhynchophorus ferrugineus; experiment: Pesticidal activity against Rhynchophorus ferrugineus (red palm weevil) cocoons assessed as mortality at 3.5 ml/l administered by dipping for 3 min measured within 3 days; assay type: functional
[37] = system: Rhynchophorus ferrugineus; experiment: Pesticidal activity against Rhynchophorus ferrugineus (red palm weevil) cocoons assessed as time required for total mortality at 3.5 ml/l administered by dipping for 10 secs; assay type: functional
[38] = system: Rhynchophorus ferrugineus; experiment: Pesticidal activity against Rhynchophorus ferrugineus (red palm weevil) cocoons assessed as time required for total mortality at 1.5 ml/l administered by dipping for 10 secs; assay type: functional
[39] = system: Rhynchophorus ferrugineus; experiment: Pesticidal activity against adult Rhynchophorus ferrugineus (red palm weevil) assessed as mortality at 1000 ppm administered topically at 72 hr post-treatment; assay type: functional
[40] = system: Rhynchophorus ferrugineus; experiment: Pesticidal activity against Rhynchophorus ferrugineus (red palm weevil) larvae assessed as mortality at 500 ppm administered topically at 36 hr post-treatment; assay type: functional
[41] = system: Rhynchophorus ferrugineus; experiment: Pesticidal activity against adult Rhynchophorus ferrugineus (red palm weevil) assessed as time required for reversible knockdown at 1.5 ml/l administered topically; assay type: functional

For `O=[N+]([O-])/N=C1\NCCN1Cc1ccc(Cl)nc1` [IMIDACLOPRID], the Activity [1] was 0%, the Activity [2] was 0% and the Activity [3] was 0%. It also gave an Activity [4] of 0%, an Activity [5] of 66.7% and an Activity [6] of 100%. For the same compound, the Activity [7] was 38.9%, the Activity [8] was 100% and the Activity [9] was 72.2%. It also gave an Activity [10] of 100%, an Activity [11] of 38.9% and a Time [12] of 3.2 days. The Time [13] was 1.1 days, the Time [14] was 1.1 days and the Time [15] was 18 days. The Time [16] was 4.1 days, the Time [17] was 3.2 days and the Activity [18] was 0%. The Activity [19] was 0%, the Activity [20] was “Active” and the Activity [21] was 44.4%. For the same compound, the Activity [22] was 0%, the Activity [23] was 44.4% and the Activity [24] was 44.4%. It also gave an Activity [25] of 100%, an Activity [26] of 38.9% and an Activity [27] of 0%. For the same compound, the Activity [28] was 72.2%, the Activity [29] was 72.2% and the Activity [30] was 100%. The Activity [31] was 100%, the Activity [32] was 72.2% and the Activity [33] was 72.2%. The Activity [34] was 100%, the Activity [35] was 66.7% and the Activity [36] was 76.7%. For the same compound, the Time [37] was 6 days, the Time [38] was 10 days and the Activity [39] was 100%. The Activity [40] was 38.9% and the Time [41] was 4 days.
